Experimental data as given in PMC5805526, “ZB716, a steroidal selective estrogen receptor degrader (SERD), is orally efficacious in blocking tumor growth in mouse xenograft models” (Oncotarget, 2018).
Read-outs that look alike come from different tables or passages of the source.

Columns and labels:
[1] = biological target: T1, ERα LBD (Homo sapiens, UniProt P03372); experiment: MARCoNI ERα-coregulator interaction peptide microarray; assay type: biochemical; details: 10 μM compound, 7 nM GST-tagged ERα LBD, vs apo
T1 construct: using 7 nM GST-tagged ERα LBD (Invitrogen); purchased Invitrogen
T1 sequence (P03372 311-547 limits assumed): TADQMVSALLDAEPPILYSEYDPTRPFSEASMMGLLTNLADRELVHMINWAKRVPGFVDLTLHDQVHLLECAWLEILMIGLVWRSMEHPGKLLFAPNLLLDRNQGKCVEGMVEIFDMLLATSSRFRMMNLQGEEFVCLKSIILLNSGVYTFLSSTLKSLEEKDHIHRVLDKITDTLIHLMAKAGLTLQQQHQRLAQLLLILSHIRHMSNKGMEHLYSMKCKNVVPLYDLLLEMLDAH
Experimental: The modulation of ERα-coregulator interaction by compound was analyzed using MARCoNI (Micro Array Assay for Real-time Coregulator Nuclear receptor Interaction) as described previously using 7 nM GST-tagged ERα LBD (Invitrogen).
Each condition is measured using 3 technical replicates (arrays). After incubation, unbound receptor is removed by washing, and a tiff image of each array is acquired using a CCD camera and receptor binding to each peptide on the array is quantified using dedicated software. For each condition, the three technical replicates are used to calculate mean and S.E.M. ERα binding as well as compound-induced log-fold modulation vs. control for each individual motif. Significance of the modulation is assessed using Student's t-Test.

[2] = Tolerability in tumor bearing animals; details: all tumor bearing animals, different oral doses
Experimental: Four to six weeks old female ovariectomized Nu/Nu mice were purchased from Charles River Laboratories (Wilmington, MA). MCF-7 cells were cultured and harvested in the exponential growth phase using a PBS/EDTA solution. The animals were injected bilaterally in the mammary fat pad (MFP) with 5×10^6 viable cells suspended in 50 μL sterile PBS mixed with 100 μL Matrigel (reduced factor; BD Biosciences, Bed- ford, MA). 17b-Estradiol pellets (0.72 mg, 60 day release; Innovative Research of America, Sarasota, FL) were implanted subcutaneously in the lateral area of the neck using a precision trochar (10 gages) at the time of cell injection. Tumors were allowed to form and at day 15 post cell injection […]. […] Tumor sizes were monitored and recorded every other day for three weeks of treatment duration.
In a patient-derived xenograft (PDX) mouse model in which the primary tumor donated by a postmenopausal patient was engrafted in NOD scid gamma (NSG™) mice (TM00386 PDX model, Jackson Lab). […] Tumor sizes were monitored and recorded every other day for three weeks of treatment duration.

[3] = Drug concentrations in final plasma and tumor tissue of MCF-7 xenograft mice; assay type: in vivo; details: for concentration at 3 weeks: female, Nu/Nu, mouse, end of study
Experimental: The plasma samples of 100 μL each were processed for analysis by a TSQ UPLC-MS/MS system. Aliquots of 10 μL of 0.5 ng/μl E-Tamoxifen-2C^13, N^15, 200 μL methanol, and 400 μl chloroform were added to the plasma in a 1.5 mL centrifuge tube in sequence. The sample was vortexed and stored at −20°C for 4 hours, followed by sonication in a Branson B3510MT Ultrasonic Cleaners for 30 min and centrifuged at 12000 RPM on a Heraeus Fresco 21 Refrigerated Micro Centrifuge from Thermo Fisher Scientific for 10 min. The supernatant was dried with a nitrogen gas flow and suspended in 100 μL methanol. Aliquots of 10 μL of the above processed samples were injected into a TSQ Vantage mass spectrometer connected with a heated electrospray ionization probe and a Dionex Ultimat 3000 UHPLC with a Hypersil gold column (50×2.1 mm). The probe setting and front mass spectrometer setting were controlled as follows: spray voltage 3200 voltage, auxiliary gas 10psi, vaporizer temperature 365°C, capillary temperature 300°C, sheath gas 30psi, S-lens RF amplitude 51 voltage. The flow gradient was started with initial 30% mobile phase A of water with 0.05% formic acid to 1 min, to 100% mobile phase B of acetonitrile with 0.05% formic acid at 8 min, and return to 30% mobile phase A at 13 min.

[4] = tested on: MCF-7 human breast cancer xenograft; experiment: Efficacy in MCF-7 xenograft tumor model; assay type: in vivo, Nu/Nu mice; details: ZB716 at both 10 mg/kg and 30 mg/kg by oral gavage, three weeks
Experimental: Four to six weeks old female ovariectomized Nu/Nu mice were purchased from Charles River Laboratories (Wilmington, MA). MCF-7 cells were cultured and harvested in the exponential growth phase using a PBS/EDTA solution. The animals were injected bilaterally in the mammary fat pad (MFP) with 5×10^6 viable cells suspended in 50 μL sterile PBS mixed with 100 μL Matrigel (reduced factor; BD Biosciences, Bed- ford, MA). 17b-Estradiol pellets (0.72 mg, 60 day release; Innovative Research of America, Sarasota, FL) were implanted subcutaneously in the lateral area of the neck using a precision trochar (10 gages) at the time of cell injection. Tumors were allowed to form and at day 15 post cell injection mice. […] Tumor sizes were monitored and recorded every other day for three weeks of treatment duration.

[5] = tested on: T47D/Y537S breast cancer cells; experiment: T47D/Y537S ESR1 mutant cell growth inhibition; assay type: cell-based; details: Homo sapiens, 120 h, 5 days treatment
From the text: Wild-type ESR1, the Y537S ESR1 mutant were fused to a FLAG tag at their C-termini and cloned into the lentiviral vector pFLRu-FH [30]. Y537S mutation was first introduced into ESR1 using the QuikChange II XL Site-Directed Mutagenesis Kit (Agilent) with an ESR1-encoding plasmid (Accession number NM_000125.1, GeneCopoeia Inc.) as the template. […] To make lentiviral particles, pFLRu-FH vector DNAs (encoding ESR1(wt) and ESR1(Y537S)) were cotransfected with the packaging plasmids into HEK293T cells using Fugene 6 (Roche). At 48 hours post transfection, culture media containing different viruses were added to T47D cells in the presence of polybrene followed by 3-day puromycin selection for stable expression.
Viable cell numbers were counted with a Z Series Coulter Counter instrument (Beckman-Coulter) following manufacturer's instructions. […] IC50 values were obtained from dose-response curves for all treatments.

[6] = biological target: T2, ERα (Homo sapiens, UniProt P03372); experiment: ER downregulation in MCF-7 cells (Western blot); assay type: cell-based; details: treated for 4 hours, read-out: ERα IC50 (ER downregulation in MCF-7 cells)
T2 construct: MCF-7 cells were plated at a density of 200,000 cells/60mm dish; endogenous in cells; host or cells: MCF-7
T2 sequence (P03372 1-595): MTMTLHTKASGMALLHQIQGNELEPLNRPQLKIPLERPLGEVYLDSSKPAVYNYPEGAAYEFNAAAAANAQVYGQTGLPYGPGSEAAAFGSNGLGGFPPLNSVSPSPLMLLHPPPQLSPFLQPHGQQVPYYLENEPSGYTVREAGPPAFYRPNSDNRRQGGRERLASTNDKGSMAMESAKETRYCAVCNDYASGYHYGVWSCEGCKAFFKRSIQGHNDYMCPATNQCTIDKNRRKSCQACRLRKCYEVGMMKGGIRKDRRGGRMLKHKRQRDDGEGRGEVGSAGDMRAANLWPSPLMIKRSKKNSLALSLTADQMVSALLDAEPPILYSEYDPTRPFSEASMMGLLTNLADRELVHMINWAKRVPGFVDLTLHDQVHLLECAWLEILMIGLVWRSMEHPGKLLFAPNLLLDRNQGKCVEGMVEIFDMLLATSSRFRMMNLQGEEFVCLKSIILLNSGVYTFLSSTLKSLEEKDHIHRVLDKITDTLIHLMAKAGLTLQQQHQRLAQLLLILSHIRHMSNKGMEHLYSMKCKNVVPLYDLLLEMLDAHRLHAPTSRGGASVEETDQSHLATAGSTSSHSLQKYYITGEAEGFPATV
Experimental: MCF-7 cells were plated at a density of 200,000 cells/60mm dish. Media containing the same drug concentrations as the growth curve assay were added on the day following plating (day 0) and allowed to incubate for 5 days for Western blot. Media with the tested compound was changed every other day. Cells were lysed. Lysates were placed on a rotisserie at 4°C for 30 min and then spun at 4°C at 12,000 rcf for 10 min. Supernatants were assayed for protein content, snap-frozen, and stored at −80°C if not run immediately. 50 μg of protein was subjected to Western blot protocol. Membranes were blocked and then incubated with 1:200 dilution of ERα antibody at 4°C overnight followed by 1:10,000 dilution of secondary antibody for 1 hr at room temperature. They were then imaged on a LICOR infrared scanner.

C[C@]12CC[C@@H]3c4ccc(B(O)O)cc4C[C@@H](CCCCCCCCC[S+]([O-])CCCC(F)(F)C(F)(F)F)[C@H]3[C@@H]1CC[C@@H]2O (some centres unmarked) [ZB716]
modulation of ERα interaction with coactivator motifs (NCOA family) [1]: strongly reduced | animal body weights [2]: no significant loss or increase of animal body weights | toxicities in the entire course of treatment [2]: no apparent toxicities were observed | drug accumulation in tumor tissue relative to fulvestrant treated mice ([3]; ZB716 10 mg/kg dose group): 4 fold | final plasma concentration relative to fulvestrant treatment group ([3]; ZB716 10 mg/kg dose group): over 6 fold | drug concentration in tumor tissue relative to fulvestrant treated mice ([3]; ZB716 30 mg/kg dose group): 10 fold | final plasma concentration relative to fulvestrant treatment group ([3]; ZB716 30 mg/kg dose group): > 20 fold | concentration at 3 weeks ([3]; plasma, treatment ZB716 10 mg/kg daily PO, read-out: Average concentration in final plasma): 182 ng/mL | concentration at 3 weeks ([3]; plasma, treatment ZB716 30 mg/kg daily PO, read-out: Average concentration in final plasma): 692 ng/mL | concentration at 3 weeks ([3]; tumor tissue, treatment ZB716 10 mg/kg daily PO, read-out: Average concentration in tumor tissue): 506 ng/mL | concentration at 3 weeks ([3]; tumor tissue, treatment ZB716 30 mg/kg daily PO, read-out: Average concentration in tumor tissue): 1540 ng/mL | tumor growth in MCF-7 xenograft [4]: complete blockage of tumor growth | IC50 [5]: 24.4 nM | DC50 [6]: 0.8 nM
